For this test, the target named is T1, Purified 12-lipoxygenase (porcine leukocyte) (Sus scrofa, UniProt P16469).
T1 construct: purchased Biomol Research labs Inc, Plymouth Meeting, Pa
T1 sequence (P16469 1-663): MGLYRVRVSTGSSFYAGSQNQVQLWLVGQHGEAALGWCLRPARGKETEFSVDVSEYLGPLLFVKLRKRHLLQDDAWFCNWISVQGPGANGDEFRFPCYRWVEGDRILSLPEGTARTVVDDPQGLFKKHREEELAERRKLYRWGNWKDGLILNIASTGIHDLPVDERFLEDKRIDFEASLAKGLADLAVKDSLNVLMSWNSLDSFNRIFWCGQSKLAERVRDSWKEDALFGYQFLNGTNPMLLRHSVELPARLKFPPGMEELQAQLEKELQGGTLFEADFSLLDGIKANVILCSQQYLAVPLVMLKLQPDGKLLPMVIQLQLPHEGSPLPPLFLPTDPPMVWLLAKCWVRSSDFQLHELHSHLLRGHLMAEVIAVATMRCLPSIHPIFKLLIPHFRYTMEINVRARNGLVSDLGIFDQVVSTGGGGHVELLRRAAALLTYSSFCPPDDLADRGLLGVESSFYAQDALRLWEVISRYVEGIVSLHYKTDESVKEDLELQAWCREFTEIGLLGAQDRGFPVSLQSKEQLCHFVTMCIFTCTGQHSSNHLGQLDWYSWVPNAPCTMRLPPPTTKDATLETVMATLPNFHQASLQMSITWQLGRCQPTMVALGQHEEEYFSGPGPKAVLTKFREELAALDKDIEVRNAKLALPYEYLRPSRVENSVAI
Put plainly: Pure 12-lipoxygenase activity with [14C]-arachidonic acid (thin layer chromatography). It is filed as biochemical. Conditions: 10 units enzyme, [14C]-arachidonic acid 25 μM, 30 min, 37° C. How it is done: Referring to FIG. 6, HT4 cells were subjected to glutamate treatment for 2 h. […] Purified 12-lipoxygenase (porcine leukocyte; 10 units) was incubated with [^14C]-arachidonic acid (25 μM) for 30 min at 37° C. Arachidonic acid and 12-HETE were resolved using thin layer chromatography as described in Materials & Methods We observed that in HT4 cells, treatment with glutamate mobilized cytosolic 12-LOX protein to the cell membrane (FIGS. 6A&B).
12-Lipoxygenase activity. To investigate whether tocotrienol directly affect the activity of 12-LOX (12-LOX), 10 units of 12-LOX (Biomol Research labs Inc, Plymouth Meeting, Pa.) was incubated at room temperature for 15 min with or without tocotrienol as indicated in the respective figure legend. The reaction mixture contained 50 mM Tris HCl, pH 7.4 and 1 mM EDTA. After 15 min, the reaction was initiated by adding 25 μM [1-^14C]-arachidonic acid per sample. Samples were kept at 37° C. for 30 minutes. The reaction was terminated by adding 200 μl of ice-cold stop solution containing diethyl ether, methanol and 1 M citric acid at a ratio of 30:4:1 by volume. After mixing, samples were centrifuged and the ethereal extracts were spotted on a silica gel thin layer plate. […] Distribution of radioactivity of the substrate and products on the plate were quantified using a imaging analyzer.

Results on one molecule are retold here after patent publication US20050228041A1, “Protective and therapeutic uses for tocotrienols” (priority 2003, published 2005).

SMILES strings stand for the structures.

Take `CC(C)=CCC/C(C)=C/CC/C(C)=C/CC[C@]1(C)CCc2c(C)c(O)c(C)c(C)c2O1` [α-tocotrienol]: the “inhibition of pure 12-lipoxygenase activity” value is “dose-dependently inhibited”.
